We go through 80 compounds from patent US20240000806A1, “METHODS AND MATERIALS FOR INHIBITING CB1 ACTIVITY” (University of Pittsburgh - Of the Commonwealth System of …, priority 2020, published 2024).

A value given as a limit tells only on which side of the number the result lay.

Sequence of CB1 (CNR1) (P21554 whole entry): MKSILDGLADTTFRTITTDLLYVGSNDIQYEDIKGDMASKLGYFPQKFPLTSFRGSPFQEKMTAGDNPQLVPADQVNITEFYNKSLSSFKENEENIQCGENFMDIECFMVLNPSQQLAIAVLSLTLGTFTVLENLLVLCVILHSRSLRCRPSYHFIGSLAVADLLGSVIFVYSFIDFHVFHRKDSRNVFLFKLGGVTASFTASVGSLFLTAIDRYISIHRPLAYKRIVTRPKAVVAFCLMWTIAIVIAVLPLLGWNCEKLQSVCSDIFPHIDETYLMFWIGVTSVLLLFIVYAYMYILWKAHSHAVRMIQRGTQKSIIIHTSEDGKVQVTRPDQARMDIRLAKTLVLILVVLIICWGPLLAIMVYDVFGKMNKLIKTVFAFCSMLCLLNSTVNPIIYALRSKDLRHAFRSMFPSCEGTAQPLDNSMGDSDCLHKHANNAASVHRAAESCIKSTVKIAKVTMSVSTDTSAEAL

This assay addresses CB1 (CNR1) (Homo sapiens, UniProt P21554). Nature of the assay: cAMP CNR1 Hunter cell line antagonist assay (CB1 assay). The class given is cell-based. To be noted: antagonist mode, cAMP CNR1 Hunter cells, EC80 agonist; read-out: CB1 assay, Efficacy (IC50). As to the method: cAMP CNR1 Hunter cell line (Eurofins DiscoveryX) were expanded from freezer stocks and seeded in a total volume of 20 μL into white walled, 384-well microplates and incubated at 37° C. for the appropriate time prior to testing. For antagonist determination, cell media was aspirated from cells and replaced with 10 μL 1:1 HBSS/Hepes:cAMP XS+Ab reagent. 5 μL of 4× compound was added to the cells and incubated at 37° C. for 30 minutes. 5 μL of 4× EC80 agonist was added to cells and incubated at 37° C. for 30 minutes. After appropriate compound incubation, assay signal was generated through incubation with 20 μL cAMP XS+ED/CL lysis cocktail for one hour followed by incubation with 20 μL cAMP XS+EA reagent for three hours at room temperature. Microplates were read following signal generation with a PerkinElmer Envision™ instrument for chemiluminescent signal detection. Compound activity (IC50) was analyzed using CBIS data analysis suite (ChemInnovation, CA).
Turning to `Cc1cc2c(cc1S(=O)(=O)Nc1ccc(Cl)cc1)OCC(=O)N2` [BC19131], the IC50 is less than 1 µM. In the case of `CC(=O)c1cccc(NS(=O)(=O)c2cc3c(cc2C)NC(=O)CO3)c1` [BC19132] it was no less than 25 µM; in that of `O=C1COc2cc(S(=O)(=O)Nc3ccc(Cl)cc3)c(Cl)cc2N1` [BC19133], less than 1 µM; in that of `Cc1ccc(NS(=O)(=O)c2cc3c(cc2C)NC(=O)CO3)cc1` [BC19134], less than 1 µM. `CCOc1ccc(NS(=O)(=O)c2cc3c(cc2Br)NC(=O)CO3)cc1` [BC19135]: the IC50 is 1 to 25 µM. `CC(C)c1ccc(NS(=O)(=O)c2cc3c(cc2Cl)NC(=O)CO3)cc1` [BC19136]: the IC50 is less than 1 µM.

Regarding `COc1ccc(NS(=O)(=O)c2cc3c(cc2Br)NC(=O)CO3)cc1` [BC19137], the 50% inhibitory concentration (IC50) was less than 1 µM. Regarding `CCc1ccc(NS(=O)(=O)c2cc3c(cc2Br)NC(=O)CO3)cc1` [BC19138], the IC50 is less than 1 µM.

Turning to `O=C1COc2cc(S(=O)(=O)Nc3ccccc3)c(Cl)cc2N1` [BC19161], the IC50 was less than 1 µM.

Consider `Cc1ccc(Cl)cc1NS(=O)(=O)c1cc2c(cc1Cl)NC(=O)CO2` [BC19162], for which the IC50 is less than 1 µM. For `COc1ccc(NS(=O)(=O)c2cc3c(cc2Br)NC(=O)CO3)cc1Cl` [BC19163] the value was less than 1 µM; for `O=C1COc2cc(S(=O)(=O)Nc3ccc(OC(F)(F)F)cc3)c(Cl)cc2N1` [BC19164], less than 1 µM. For `Cc1ccc(NS(=O)(=O)c2cc3c(cc2Cl)NC(=O)CO3)cc1Cl` [BC19165] the value was 1 to 25 µM; for `O=C1COc2cc(S(=O)(=O)Nc3ccc(F)cc3F)c(Br)cc2N1` [BC19166], less than 1 µM; for `CCc1cccc(NS(=O)(=O)c2cc3c(cc2Br)NC(=O)CO3)c1` [BC19167], less than 1 µM.

As to `O=C1COc2c(cc(Cl)cc2S(=O)(=O)Nc2ccccc2)N1` [BC19168], the IC50 fell in the range of 1 to 25 µM. For `O=C1COc2c(cc(Cl)cc2S(=O)(=O)Nc2ccc(Cl)cc2)N1` [BC19169] the value was less than 1 µM. As for `Cc1ccc(Cl)cc1NS(=O)(=O)c1cc(Cl)cc2c1OCC(=O)N2` [BC19170], the IC50 was 1 to 25 µM. For `COc1ccc(NS(=O)(=O)c2cc(Br)cc3c2OCC(=O)N3)cc1Cl` [BC19171] the value was 1 to 25 µM. For `O=C1COc2c(cc(Cl)cc2S(=O)(=O)Nc2ccc(OC(F)(F)F)cc2)N1` [BC19172] the value was no less than 25 µM; for `CCOc1ccc(NS(=O)(=O)c2cc(Br)cc3c2OCC(=O)N3)cc1` [BC19173], no less than 25 µM. As to `CC(C)c1ccc(NS(=O)(=O)c2cc(Cl)cc3c2OCC(=O)N3)cc1` [BC19174], the IC50 was no less than 25 µM. `COc1ccc(NS(=O)(=O)c2cc(Br)cc3c2OCC(=O)N3)cc1` [BC19175]: the IC50 is no less than 25 µM.

In the case of `Cc1ccc(NS(=O)(=O)c2cc(Cl)cc3c2OCC(=O)N3)cc1Cl` [BC19176], the IC50 is less than 1 µM. With `O=C1COc2c(cc(Br)cc2S(=O)(=O)Nc2ccc(F)c(F)c2)N1` [BC19177], the IC50 fell in the range of 1 to 25 µM. For `O=C1COc2c(cc(Br)cc2S(=O)(=O)Nc2ccc(F)cc2F)N1` [BC19178], the IC50 was less than 1 µM. As to `CCc1ccc(NS(=O)(=O)c2cc(Br)cc3c2OCC(=O)N3)cc1` [BC19179], the IC50 lay in the range of 1 to 25 µM.

`CCc1cccc(NS(=O)(=O)c2cc(Br)cc3c2OCC(=O)N3)c1` [BC19180]: the IC50 is no less than 25 µM.

As for `CN1CC(=O)Nc2ccc(S(=O)(=O)N3CCCC3)cc21` [BC19181], the IC50 was no less than 25 µM.

Consider `CC(=O)N1c2cc(S(=O)(=O)N3CCCC3)ccc2NC(=O)C1C` (centres unmarked) [BC19182], for which the IC50 is less than 1 µM.

In the case of `CNC(=O)N1CC(=O)Nc2ccc(S(=O)(=O)N3CCCC3)cc21` [BC19183], the IC50 is 1 to 25 µM. As for `CC(C)CC(=O)N1c2cc(S(=O)(=O)N3CCCC3)ccc2NC(=O)C1C` (centres unmarked) [BC19184], the IC50 lay within 1 to 25 µM.

As to `CC1Oc2cc(S(=O)(=O)Nc3ccccc3)c(Cl)cc2NC1=O` (centres unmarked) [BC19206], the IC50 is no less than 25 µM. `CC(C)NS(=O)(=O)c1cc2c(cc1Cl)NC(=O)C(C)O2` (centres unmarked) [BC19207]: the IC50 was no less than 25 µM.

With `CC1Oc2cc(S(=O)(=O)N3CCCC3)c(Cl)cc2NC1=O` (centres unmarked) [BC19208], the IC50 is no less than 25 µM.

Turning to `CCNS(=O)(=O)c1cc2c(cc1Cl)NC(=O)C(C)O2` (centres unmarked) [BC19209], the IC50 was no less than 25 µM. Regarding `CCC1Oc2cc(S(=O)(=O)Nc3ccc(C(C)C)cc3)c(Cl)cc2NC1=O` (centres unmarked) [BC19210], the IC50 was less than 1 µM. As for `CCC1Oc2cc(S(=O)(=O)Nc3ccc(OC)cc3)c(Cl)cc2NC1=O` (centres unmarked) [BC19211], the IC50 is 1 to 25 µM. Regarding `CCC1Oc2cc(S(=O)(=O)Nc3ccc(C)c(F)c3)c(Cl)cc2NC1=O` (centres unmarked) [BC19212], the IC50 lay within 1 to 25 µM. In the case of `CCC1Oc2cc(S(=O)(=O)Nc3cccc(SC)c3)c(Cl)cc2NC1=O` (centres unmarked) [BC19213], the IC50 was no less than 25 µM. For `CCCNS(=O)(=O)c1cc2c(cc1Cl)NC(=O)C(CC)O2` (centres unmarked) [BC19214] the value was no less than 25 µM. `CCC1Oc2cc(S(=O)(=O)Nc3cc(Cl)ccc3C)c(Cl)cc2NC1=O` (centres unmarked) [BC19215]: the IC50 is no less than 25 µM. Take `CCc1ccc(NS(=O)(=O)c2cc3c(cc2Br)NC(=O)C(C)O3)cc1` (centres unmarked) [BC19216]: the IC50 was less than 1 µM. Consider `CC1Oc2cc(S(=O)(=O)N3CCOCC3)c(Br)cc2NC1=O` (centres unmarked) [BC19217], for which the IC50 was no less than 25 µM. For `CC(C)CNS(=O)(=O)c1cc2c(cc1Br)NC(=O)C(C)O2` (centres unmarked) [BC19218], the IC50 lay within 1 to 25 µM. In the case of `CC1Oc2cc(S(=O)(=O)N3CCN(C)CC3)c(Br)cc2NC1=O` (centres unmarked) [BC19219] it was no less than 25 µM. `CCC1Oc2cc(S(=O)(=O)Nc3cccc(F)c3)c(Br)cc2NC1=O` (centres unmarked) [BC19220]: the IC50 was no less than 25 µM. Turning to `CCC1Oc2cc(S(=O)(=O)Nc3cccc(Cl)c3)c(Br)cc2NC1=O` (centres unmarked) [BC19221], the IC50 is 1 to 25 µM. For `CCCNS(=O)(=O)c1cc2c(cc1Br)NC(=O)C(CC)O2` (centres unmarked) [BC19222] the value was 1 to 25 µM; for `CCC1Oc2cc(S(=O)(=O)NC3CCCCC3)c(Br)cc2NC1=O` (centres unmarked) [BC19223], 1 to 25 µM. For `CCC1Oc2cc(S(=O)(=O)Nc3ccc(C)cc3)c(Br)cc2NC1=O` (centres unmarked) [BC19224] the value was no less than 25 µM; for `Cc1ccc(NS(=O)(=O)c2cc(Br)cc3c2OC(C)C(=O)N3)cc1Cl` (centres unmarked) [BC19225], no less than 25 µM. For `CC1Oc2c(cc(Br)cc2S(=O)(=O)N2CCOCC2)NC1=O` (centres unmarked) [BC19226] the value was no less than 25 µM.

In the case of `CC(C)CNS(=O)(=O)c1cc(Br)cc2c1OC(C)C(=O)N2` (centres unmarked) [BC19227], the IC50 was no less than 25 µM. In the case of `CC1Oc2c(cc(Br)cc2S(=O)(=O)N2CCN(C)CC2)NC1=O` (centres unmarked) [BC19228] it was 1 to 25 µM; in that of `CCCNS(=O)(=O)c1cc(Br)cc2c1OC(CC)C(=O)N2` (centres unmarked) [BC19229], no less than 25 µM; in that of `CCC1Oc2c(cc(Br)cc2S(=O)(=O)NCc2ccccc2)NC1=O` (centres unmarked) [BC19230], no less than 25 µM.

Regarding `CCC1Oc2c(cc(Br)cc2S(=O)(=O)Nc2cccc(F)c2)NC1=O` (centres unmarked) [BC19231], the IC50 was no less than 25 µM. As to `CCC1Oc2c(cc(Br)cc2S(=O)(=O)Nc2cccc(Cl)c2)NC1=O` (centres unmarked) [BC19232], the IC50 was no less than 25 µM. For `CCC1Oc2c(cc(Br)cc2S(=O)(=O)NC2CCCCC2)NC1=O` (centres unmarked) [BC19233] the value was no less than 25 µM. For `CCC1Oc2c(cc(Br)cc2S(=O)(=O)Nc2ccc(C)cc2)NC1=O` (centres unmarked) [BC19234] the value was no less than 25 µM; for `CC1Nc2cc(S(=O)(=O)N3CCCC3)ccc2NC1=O` (centres unmarked) [BC19235], no less than 25 µM; for `CNC(=O)N1c2cc(S(=O)(=O)N3CCCC3)ccc2NC(=O)C1C` (centres unmarked) [BC19236], no less than 25 µM.

Turning to `COc1ccc(NS(=O)(=O)c2cc3c(cc2Cl)NC(=O)C(C)O3)cc1Cl` (centres unmarked) [BC19280], the IC50 lay within 1 to 25 µM. For `CCOc1ccc(NS(=O)(=O)c2cc3c(cc2Cl)NC(=O)C(C)O3)cc1` (centres unmarked) [BC19281] the value was no less than 25 µM; for `CCC1Oc2cc(S(=O)(=O)Nc3cccc(C(C)=O)c3)c(Cl)cc2NC1=O` (centres unmarked) [BC19282], 1 to 25 µM. On to `CCc1cccc(NS(=O)(=O)c2cc3c(cc2Br)NC(=O)C(C)O3)c1` (centres unmarked) [BC19283], for which the IC50 was 1 to 25 µM.

In the case of `CC1Oc2cc(S(=O)(=O)Nc3ccc(F)c(F)c3)c(Br)cc2NC1=O` (centres unmarked) [BC19284], the IC50 was no less than 25 µM. In the case of `CC1Oc2cc(S(=O)(=O)Nc3ccc(F)cc3Cl)c(Br)cc2NC1=O` (centres unmarked) [BC19285] it was 1 to 25 µM; in that of `CCC1Oc2cc(S(=O)(=O)Nc3ccc(Cl)cc3)c(Br)cc2NC1=O` (centres unmarked) [BC19286], no less than 25 µM; in that of `CCC1Oc2cc(S(=O)(=O)NCc3ccccc3)c(Br)cc2NC1=O` (centres unmarked) [BC19287], 1 to 25 µM. In the case of `CCc1cccc(NS(=O)(=O)c2cc(Br)cc3c2OC(C)C(=O)N3)c1` (centres unmarked) [BC19288] it was 1 to 25 µM. For `CC1Oc2c(cc(Br)cc2S(=O)(=O)Nc2ccc(F)cc2Cl)NC1=O` (centres unmarked) [BC19289] the value was no less than 25 µM. Consider `CCC1Oc2c(cc(Br)cc2S(=O)(=O)Nc2ccc(Cl)cc2)NC1=O` (centres unmarked) [BC19290], for which the IC50 was no less than 25 µM. For `CC1Oc2c(cc(Cl)cc2S(=O)(=O)Nc2ccccc2)NC1=O` (centres unmarked) [BC19291] the value was no less than 25 µM; for `COc1ccc(NS(=O)(=O)c2cc(Cl)cc3c2OC(C)C(=O)N3)cc1Cl` (centres unmarked) [BC19292], 1 to 25 µM; for `CC(C)NS(=O)(=O)c1cc(Cl)cc2c1OC(C)C(=O)N2` (centres unmarked) [BC19293], no less than 25 µM. In the case of `CCNS(=O)(=O)c1cc(Cl)cc2c1OC(C)C(=O)N2` (centres unmarked) [BC19294] it was 1 to 25 µM; in that of `CC(=O)N1CC(=O)Nc2ccc(S(=O)(=O)N3CCCC3)cc21` [BC19295], no less than 25 µM. For `CC1C(=O)Nc2ccc(S(=O)(=O)N3CCCC3)cc2N1C` (centres unmarked) [BC19296], the IC50 is 1 to 25 µM.

One may read the IC50 as the concentration that inhibits the measured activity by half.
